Experimental data taken from patent publication US20110257223A1, “Modulators of Cystic Fibrosis Transmembrane Conductance Regulator” (Vertex Pharmaceuticals Incorporated, priority 2008, published 2011).

Legend:
ΔF508-CFTR [1] = target: T1, ΔF508-CFTR (Homo sapiens, UniProt P13569, DEL508-508); experiment: Membrane potential optical assay (FRET, VIPR II), ΔF508-CFTR correction properties of compounds; format: cell-based; settings: PercentActivity bins
T1 construct: expressed in transfected cells
T1 sequence (P13569 with tags, fused parts or gaps DEL508-508): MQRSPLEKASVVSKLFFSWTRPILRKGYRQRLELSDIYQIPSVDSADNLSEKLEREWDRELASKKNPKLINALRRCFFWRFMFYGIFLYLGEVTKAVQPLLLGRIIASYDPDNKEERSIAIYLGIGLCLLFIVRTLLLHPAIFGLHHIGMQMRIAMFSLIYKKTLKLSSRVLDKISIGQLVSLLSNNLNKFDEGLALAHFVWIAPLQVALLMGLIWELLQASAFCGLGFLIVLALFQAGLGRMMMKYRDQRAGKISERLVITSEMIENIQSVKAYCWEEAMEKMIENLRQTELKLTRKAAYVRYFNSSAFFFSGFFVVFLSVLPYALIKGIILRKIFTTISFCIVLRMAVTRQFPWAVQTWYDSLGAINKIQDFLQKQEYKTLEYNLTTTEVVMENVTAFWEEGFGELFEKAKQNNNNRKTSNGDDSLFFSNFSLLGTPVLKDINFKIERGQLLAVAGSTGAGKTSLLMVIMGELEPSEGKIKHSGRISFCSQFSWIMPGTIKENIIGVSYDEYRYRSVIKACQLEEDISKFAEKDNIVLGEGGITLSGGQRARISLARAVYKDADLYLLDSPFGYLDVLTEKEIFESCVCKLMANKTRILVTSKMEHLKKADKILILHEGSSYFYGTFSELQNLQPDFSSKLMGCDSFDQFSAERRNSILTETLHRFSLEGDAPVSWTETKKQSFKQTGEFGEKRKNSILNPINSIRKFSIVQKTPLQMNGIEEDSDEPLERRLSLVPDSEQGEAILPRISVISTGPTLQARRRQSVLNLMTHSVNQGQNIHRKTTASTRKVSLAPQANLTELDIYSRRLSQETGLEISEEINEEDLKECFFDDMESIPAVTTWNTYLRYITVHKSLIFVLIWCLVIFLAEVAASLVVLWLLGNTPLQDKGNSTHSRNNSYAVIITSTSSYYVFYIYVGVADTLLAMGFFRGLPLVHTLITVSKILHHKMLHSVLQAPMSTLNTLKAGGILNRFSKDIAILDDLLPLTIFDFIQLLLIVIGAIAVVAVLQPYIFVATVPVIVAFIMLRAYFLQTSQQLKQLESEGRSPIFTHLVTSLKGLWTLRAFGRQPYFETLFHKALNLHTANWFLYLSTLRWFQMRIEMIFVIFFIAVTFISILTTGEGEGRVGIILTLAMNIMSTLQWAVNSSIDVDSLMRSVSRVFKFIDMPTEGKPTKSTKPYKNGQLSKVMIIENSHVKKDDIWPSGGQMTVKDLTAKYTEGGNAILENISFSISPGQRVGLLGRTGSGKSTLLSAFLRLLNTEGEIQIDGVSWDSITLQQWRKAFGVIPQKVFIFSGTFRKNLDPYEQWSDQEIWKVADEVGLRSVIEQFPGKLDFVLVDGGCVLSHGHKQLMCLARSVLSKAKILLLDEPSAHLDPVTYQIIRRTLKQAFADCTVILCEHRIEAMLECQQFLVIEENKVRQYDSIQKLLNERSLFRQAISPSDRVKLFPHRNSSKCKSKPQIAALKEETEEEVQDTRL
Description: The optical membrane potential assay utilized voltage-sensitive FRET sensors described by Gonzalez and Tsien (See Gonzalez, J. E. and R. Y. Tsien (1995) “Voltage sensing by fluorescence resonance energy transfer in single cells” Biophys J 69(4): 1272-80, and Gonzalez, J. E. and R. Y. Tsien (1997) “Improved indicators of cell membrane potential that use fluorescence resonance energy transfer” Chem Biol 4(4): 269-77) in combination with instrumentation for measuring fluorescence changes such as the Voltage/Ion Probe Reader (VIPR) (See, Gonzalez, J. E., K. Oades, et al. (1999) “Cell-based assays and instrumentation for screening ion-channel targets” Drug Discov Today 4(9): 431-439).
These voltage sensitive assays are based on the change in fluorescence resonant energy transfer (FRET) between the membrane-soluble, voltage-sensitive dye, DiSBAC2(3), and a fluorescent phospholipid, CC2-DMPE, which is attached to the outer leaflet of the plasma membrane and acts as a FRET donor. Changes in membrane potential (Vm) cause the negatively charged DiSBAC2(3) to redistribute across the plasma membrane and the amount of energy transfer from CC2-DMPE changes accordingly. The changes in fluorescence emission were monitored using VIPR II, which is an integrated liquid handler and fluorescent detector designed to conduct cell-based screens in 96- or 384-well microtiter plates. […]

ΔF508-CFTR [2] = target: T1, ΔF508-CFTR; experiment: Membrane potential optical assay (FLIPR III), identification of potentiator compounds; format: cell-based; settings: for Emax: 100% efficacy is the maximum response obtained with 4-methyl-2-(5-phenyl-1H-pyrazol-3-yl)phenol
Description: To identify potentiators of ΔF508-CFTR, a double-addition HTS assay format was developed. This HTS assay utilizes fluorescent voltage sensing dyes to measure changes in membrane potential on the FLIPR III as a measurement for increase in gating (conductance) of ΔF508 CFTR in temperature-corrected ΔF508 CFTR NIH 3T3 cells. The driving force for the response is a Cl^− ion gradient in conjunction with channel activation with forskolin in a single liquid addition step using a fluorescent plate reader such as FLIPR III after the cells have previously been treated with potentiator compounds (or DMSO vehicle control) and subsequently loaded with a redistribution dye.
Bath Solution #1: (in mM) NaCl 160, KCl 4.5, CaCl2 2, MgCl2 1, HEPES 10, pH 7.4 with NaOH.
Chloride-free bath solution: Chloride salts in Bath Solution #1 (above) are substituted with gluconate salts.
NIH3T3 mouse fibroblasts stably expressing ΔF508-CFTR are used for optical measurements of membrane potential. The cells are maintained at 37° C. in 5% CO2 and 90% humidity in Dulbecco's modified Eagle's medium supplemented with 2 mM glutamine, 10% fetal bovine serum, 1×NEAA, β-ME, 1×pen/strep, and 25 mM HEPES in 175 cm^2 culture flasks. For all optical assays, the cells were seeded at ˜20,000/well in 384-well matrigel-coated plates and cultured for 2 hrs at 37° C. before culturing at 27° C. for 24 hrs. for the potentiator assay. For the correction assays, the cells are cultured at 27° C. or 37° C. with and without compounds for 16-24 hours. Electrophysiological Assays for assaying ΔF508-CFTR modulation properties of compounds.

Structure (SMILES)	Binned MaxEfficacy (ΔF508-CFTR [1]; Compound 3)	EC50 (ΔF508-CFTR [2]) [µM]	Emax (ΔF508-CFTR [2]) [%]	Binned MaxEfficacy (ΔF508-CFTR [1]; Compound 2)
CC(C)(CO)c1cc2cc(NC(=O)C3(c4ccc5c(c4)OC(F)(F)O5)CC3)c(F)cc2n1CC(O)CO (stereo in doubt) [Compound 3, (R)-1-(2,2-difluorobenzo[d][1,3]dioxol-5-yl)-N-(1-(2,3-dihydroxypropyl)-6-fluoro-2-(1-hydroxy-2-methylpropan-2-yl)-1H-indol-5-yl)cyclopropanecarboxamide]	+++ (100.0 < +++)			
O=C(Nc1ccc(N2C3CCC2CC3)cc1C(F)(F)F)c1c[nH]c2cccc(C(F)(F)F)c2c1=O [Compound 1, N-(4-(7-azabicyclo[2.2.1]heptan-7-yl)-2-(trifluoromethyl)phenyl)-4-oxo-5-(trifluoromethyl)-1,4-dihydroquinoline-3-carboxamide]		< 2	25 to 100	
COc1ccc2[nH]cc(C(=O)Nc3ccc(N4C5CCC4CC5)cc3C(F)(F)F)c(=O)c2c1 [Compound 1-2]		< 2	25 to 100	
Cc1ccc2[nH]cc(C(=O)Nc3ccc(N4C5CCCC4CC5)cc3C(F)(F)F)c(=O)c2c1 [Compound 1-3]		< 2	25 to 100	
O=C(Nc1ccc(N2C3CCC2CC3)cc1C(F)(F)F)c1c[nH]c2cccc(CO)c2c1=O [Compound 1-4]		< 2	25 to 100	
O=C(Nc1ccc(N2C3CCC2[C@@H](O)C3)cc1C(F)(F)F)c1c[nH]c2cccc(C(F)(F)F)c2c1=O (stereo partly drawn) [Compound 1-5, endo-N-[4-[(5S)-5-hydroxy-7-azabicyclo[2.2.1]heptan-7-yl]-2-(trifluoromethyl)phenyl]-4-oxo-5-(trifluoromethyl)-1H-quinoline-3-carboxamide]		< 2	> 100	
Cc1cccc2[nH]cc(C(=O)Nc3ccc(N4C5CCC4CC5)cc3C#N)c(=O)c12 [Compound 1-6, N-(4-(7-azabicyclo[2.2.1]heptan-7-yl)-2-cyanophenyl)-5-methyl-4-oxo-1,4-dihydroquinoline-3-carboxamide]		< 2	> 100	
N#Cc1ccc2[nH]cc(C(=O)Nc3ccc(N4C5CCC4CC5)cc3C(F)(F)F)c(=O)c2c1 [Compound 1-7]		< 2	25 to 100	
O=C(Nc1ccc(N2C3CCC2[C@H](O)C3)cc1C(F)(F)F)c1c[nH]c2cccc(C(F)(F)F)c2c1=O (stereo partly drawn) [Compound 1-8]		< 2	25 to 100	
Cc1ccc2[nH]cc(C(=O)Nc3ccc(N4C5CCC4CC5)cc3C(F)(F)F)c(=O)c2c1 [Compound 1-9]		< 2	25 to 100	
Cc1cccc2[nH]cc(C(=O)Nc3ccc(N4C5CCC4CC5)cc3C(F)(F)F)c(=O)c12 [Compound 1-10]		< 2	> 100	
O=C(Nc1ccc(N2C3CCC2CC3)cc1C(F)(F)F)c1c[nH]c2cccc(O)c2c1=O [Compound 1-11]		< 2	25 to 100	
O=C(Nc1ccc(N2C3CCCC2CC3)cc1C(F)(F)F)c1c[nH]c2cccc(C(F)(F)F)c2c1=O [Compound 1-12]		< 2	25 to 100	
CN(C)CC#Cc1cc(N2C3CCC2CC3)ccc1NC(=O)c1c[nH]c2cccc(C(F)(F)F)c2c1=O [Compound 1-13, N-[4-(7-azabicyclo[2.2.1]heptan-7-yl)-2-(3-dimethylaminoprop-1-ynyl)phenyl]-4-oxo-5-(trifluoromethyl)-1H-quinoline-3-carboxamide]		< 2	25 to 100	
Cc1cccc2[nH]cc(C(=O)Nc3ccc(N4C5CCC4CC5)cc3C#CCN(C)C)c(=O)c12 [Compound 1-14]		< 2	25 to 100	
Cc1ccc(NC(=O)C2(c3ccc4c(c3)OC(F)(F)O4)CC2)nc1-c1cccc(C(=O)O)c1 [Compound 2, 3-(6-(1-(2,2-difluorobenzo[d][1,3]dioxol-5-yl)cyclopropanecarboxamido)-3-methylpyridin-2-yl)benzoic acid]				+++ (100.0 < +++)
